Measurements from patent publication US11739098B2 (BRISTOL-MYERS SQUIBB COMPANY, priority 2017, dated 2023).
Each block holds one molecule with its values, some of them ahead of it.

Columns and labels:
Type in all cases: cell-based
[1] = target: T1, human TLR9 (Homo sapiens, UniProt Q9NR96); test: TLR9 inhibition reporter assay (HEK-Blue cells, SEAP reporter, ODN2006 stimulation); conditions: HEK-Blue cells overexpressing human TLR9, SEAP reporter, ODN2006 5 nM
T1 construct: host or cells: HEK-Blue cells (HEK293-derived reporter line)
T1 sequence (Q9NR96 26-1032): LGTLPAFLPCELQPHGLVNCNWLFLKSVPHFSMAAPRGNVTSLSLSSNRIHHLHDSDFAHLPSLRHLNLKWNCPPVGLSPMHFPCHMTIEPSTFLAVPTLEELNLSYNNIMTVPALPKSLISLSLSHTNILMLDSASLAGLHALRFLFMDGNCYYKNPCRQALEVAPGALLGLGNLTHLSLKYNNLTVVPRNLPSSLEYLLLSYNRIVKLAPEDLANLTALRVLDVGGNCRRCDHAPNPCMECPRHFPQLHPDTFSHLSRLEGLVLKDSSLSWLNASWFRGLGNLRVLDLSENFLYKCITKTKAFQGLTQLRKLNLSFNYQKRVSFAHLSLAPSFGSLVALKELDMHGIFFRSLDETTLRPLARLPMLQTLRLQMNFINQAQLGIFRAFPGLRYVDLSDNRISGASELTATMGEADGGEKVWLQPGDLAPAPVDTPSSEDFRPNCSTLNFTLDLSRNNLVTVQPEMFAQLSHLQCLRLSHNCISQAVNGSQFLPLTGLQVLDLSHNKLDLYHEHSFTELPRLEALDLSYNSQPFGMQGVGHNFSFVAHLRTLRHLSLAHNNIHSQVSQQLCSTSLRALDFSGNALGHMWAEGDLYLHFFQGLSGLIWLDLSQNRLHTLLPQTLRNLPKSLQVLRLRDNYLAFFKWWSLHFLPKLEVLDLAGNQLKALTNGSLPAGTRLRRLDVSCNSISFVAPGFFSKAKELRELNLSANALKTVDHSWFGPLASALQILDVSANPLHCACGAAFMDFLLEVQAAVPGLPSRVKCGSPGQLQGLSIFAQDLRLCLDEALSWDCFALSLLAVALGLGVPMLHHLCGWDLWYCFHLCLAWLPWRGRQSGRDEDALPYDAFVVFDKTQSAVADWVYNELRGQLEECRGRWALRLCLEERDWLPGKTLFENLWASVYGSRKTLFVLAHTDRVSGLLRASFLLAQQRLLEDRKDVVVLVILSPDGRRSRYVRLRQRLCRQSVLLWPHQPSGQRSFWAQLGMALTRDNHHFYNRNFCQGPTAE
In short: (§1)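 After 22 h at 37 °C, SEAP secretion was measured from human TLR7-, TLR8- or TLR9-expressing HEK-Blue reporter cells given compound (0.05 nM–50 μM) 30 min before agonist: 7.5 μM gardiquimod, 15.9 μM R848 or 5 nM ODN2006 respectively. Percent inhibition referenced to agonist-plus-DMSO and known-inhibitor wells.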

[2] = target: T2, human TLR8 (Homo sapiens, UniProt Q9NR97); test: TLR8 inhibition reporter assay (HEK-Blue cells, SEAP reporter, R848 stimulation); conditions: HEK-Blue cells overexpressing human TLR8, SEAP reporter, R848 15.9 μM
T2 construct: host or cells: HEK-Blue cells (HEK293-derived reporter line)
T2 sequence (Q9NR97 27-1041): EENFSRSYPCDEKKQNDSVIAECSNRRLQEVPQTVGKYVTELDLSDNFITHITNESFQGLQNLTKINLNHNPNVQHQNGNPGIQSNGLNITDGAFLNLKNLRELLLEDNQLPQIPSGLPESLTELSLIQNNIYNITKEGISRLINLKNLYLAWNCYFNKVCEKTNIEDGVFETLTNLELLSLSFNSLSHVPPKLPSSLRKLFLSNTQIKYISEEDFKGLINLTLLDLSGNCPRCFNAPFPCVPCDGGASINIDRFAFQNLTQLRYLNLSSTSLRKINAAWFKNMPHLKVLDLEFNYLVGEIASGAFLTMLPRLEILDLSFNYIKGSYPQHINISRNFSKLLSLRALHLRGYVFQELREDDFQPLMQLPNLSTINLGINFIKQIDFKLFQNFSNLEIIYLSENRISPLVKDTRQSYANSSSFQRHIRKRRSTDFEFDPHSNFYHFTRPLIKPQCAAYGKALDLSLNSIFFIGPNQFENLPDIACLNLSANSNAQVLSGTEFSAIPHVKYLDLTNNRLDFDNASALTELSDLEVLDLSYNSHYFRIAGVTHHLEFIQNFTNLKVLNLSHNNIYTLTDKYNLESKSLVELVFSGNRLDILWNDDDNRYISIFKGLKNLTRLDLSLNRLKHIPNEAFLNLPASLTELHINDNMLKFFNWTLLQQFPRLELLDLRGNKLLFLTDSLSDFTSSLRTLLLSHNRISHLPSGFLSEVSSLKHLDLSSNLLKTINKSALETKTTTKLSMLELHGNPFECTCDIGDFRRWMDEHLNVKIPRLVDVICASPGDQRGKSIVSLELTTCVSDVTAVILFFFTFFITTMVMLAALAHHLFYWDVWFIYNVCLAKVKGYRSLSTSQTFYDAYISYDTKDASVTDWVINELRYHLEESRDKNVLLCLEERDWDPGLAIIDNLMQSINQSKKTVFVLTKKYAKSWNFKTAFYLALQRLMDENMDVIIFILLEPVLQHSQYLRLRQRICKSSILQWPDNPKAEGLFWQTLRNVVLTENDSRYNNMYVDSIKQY
In short: as §1

[3] = target: T3, human TLR7 (Homo sapiens, UniProt Q9NYK1); test: TLR7 inhibition reporter assay (HEK-Blue cells, SEAP reporter, gardiquimod stimulation); conditions: HEK-Blue cells overexpressing human TLR7, SEAP reporter, gardiquimod 7.5 μM
T3 construct: host or cells: HEK-Blue cells (HEK293-derived reporter line)
T3 sequence (Q9NYK1 27-1049): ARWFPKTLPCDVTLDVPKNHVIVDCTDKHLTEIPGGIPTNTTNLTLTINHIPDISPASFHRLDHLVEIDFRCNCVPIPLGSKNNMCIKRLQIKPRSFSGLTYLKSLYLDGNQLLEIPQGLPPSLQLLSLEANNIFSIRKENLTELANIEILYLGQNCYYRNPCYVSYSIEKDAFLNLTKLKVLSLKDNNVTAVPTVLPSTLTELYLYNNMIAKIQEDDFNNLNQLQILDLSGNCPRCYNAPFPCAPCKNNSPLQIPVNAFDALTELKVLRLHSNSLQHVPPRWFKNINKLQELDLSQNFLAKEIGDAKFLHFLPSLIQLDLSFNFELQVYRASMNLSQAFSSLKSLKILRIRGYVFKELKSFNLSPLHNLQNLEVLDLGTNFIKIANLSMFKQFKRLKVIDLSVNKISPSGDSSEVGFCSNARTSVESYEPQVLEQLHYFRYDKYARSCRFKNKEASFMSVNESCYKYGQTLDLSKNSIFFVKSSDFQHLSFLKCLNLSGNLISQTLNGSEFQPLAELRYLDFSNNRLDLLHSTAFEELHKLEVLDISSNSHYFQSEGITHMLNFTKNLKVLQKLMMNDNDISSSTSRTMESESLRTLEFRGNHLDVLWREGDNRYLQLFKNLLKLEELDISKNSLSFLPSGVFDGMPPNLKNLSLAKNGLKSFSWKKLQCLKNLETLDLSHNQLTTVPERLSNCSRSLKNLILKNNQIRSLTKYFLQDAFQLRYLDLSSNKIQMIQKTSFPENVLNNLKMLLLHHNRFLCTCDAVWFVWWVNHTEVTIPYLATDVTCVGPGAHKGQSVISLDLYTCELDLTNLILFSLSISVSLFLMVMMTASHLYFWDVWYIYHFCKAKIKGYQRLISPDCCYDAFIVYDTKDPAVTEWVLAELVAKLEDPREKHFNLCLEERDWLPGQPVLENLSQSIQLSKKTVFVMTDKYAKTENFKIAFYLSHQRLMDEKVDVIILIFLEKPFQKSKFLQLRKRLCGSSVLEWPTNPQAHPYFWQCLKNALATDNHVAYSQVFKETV
In short: as §1

SMILES: COc1cc(-c2[nH]c3ccc(C4CCN(C(=O)CN(C)C)CC4)cc3c2C(C)C)nn2ncnc12 [Example 460, 2-(dimethylamino)-1-(4-(3-isopropyl-2-(8-methoxy-[1,2,4]triazolo[1,5-b]pyridazin-6-yl)-1H-indol-5-yl)piperidin-1-yl)ethan-1-one]
IC50 [1]: 1000 to 50000 nM
IC50 [2]: < 100 nM
IC50 [3]: < 100 nM

SMILES: CNC(=O)CN1CCC(c2ccc3[nH]c(-c4ccn5nc(C)cc5c4)c(C(C)C)c3c2)CC1 [Example 322, 2-(4-(3-isopropyl-2-(2-methylpyrazolo[1,5-a]pyridin-5-yl)-1H-indol-5-yl)piperidin-1-yl)-N-methylacetamide]
IC50 [1]: 1000 to 50000 nM
IC50 [2]: 1000 to 50000 nM
IC50 [3]: 100 to 1000 nM

SMILES: Cc1nc2c(C)cc(-c3[nH]c4ccc(C5CCN(CC(=O)N(C)C)CC5)cc4c3C(C)C)cn2c1C [Example 396, 2-(4-(3-isopropyl-2-(2,3,8-trimethylimidazo[1,2-a]pyridin-6-yl)-1H-indol-5-yl)piperidin-1-yl)-N,N-dimethylacetamide]
IC50 [1]: 100 to 1000 nM
IC50 [2]: 100 to 1000 nM
IC50 [3]: < 100 nM

SMILES: COc1cc(-c2[nH]c3ccc(C4CCNCC4)cc3c2C(C)C)cc2nc(C)nn12 [Example 155, 7-(3-isopropyl-5-(piperidin-4-yl)-1H-indol-2-yl)-5-methoxy-2-methyl-[1,2,4]triazolo [1,5-a]pyridine]
IC50 [1]: 1000 to 50000 nM
IC50 [2]: < 100 nM
IC50 [3]: < 100 nM

SMILES: CNCCN1CCC(c2ccc3[nH]c(-c4ccc5c(c4)CCO5)c(C)c3c2)CC1 [Example 669, 2-(4-(2-(2,3-dihydrobenzofuran-5-yl)-3-methyl-1H-indol-5-yl)piperidin-1-yl)-N-methylethan-1-amine]
IC50 [1]: 1000 to 50000 nM
IC50 [2]: 100 to 1000 nM
IC50 [3]: 1000 to 50000 nM

SMILES: Cc1c(-c2ccnc3cc[nH]c23)[nH]c2ccc(C3CCNCC3)cc12 [Example 23, 7-(3-methyl-5-(piperidin-4-yl)-1H-indol-2-yl)-1H-pyrrolo[3,2-b]pyridine]
IC50 [1]: 100 to 1000 nM
IC50 [2]: < 100 nM
IC50 [3]: < 100 nM

SMILES: CC(C)c1c(-c2ccnc3[nH]ncc23)[nH]c2ccc(C3CCN(CCN4CCCCCC4)CC3)cc12 [Example 660, 4-(5-(1-(2-(azepan-1-yl)ethyl)piperidin-4-yl)-3-isopropyl-1H-indol-2-yl)-1H-pyrazolo[3,4-b]pyridine]
IC50 [1]: 100 to 1000 nM
IC50 [2]: < 100 nM
IC50 [3]: < 100 nM

SMILES: CC(C)c1c(-c2ccnc3c2ncn3C)[nH]c2ccc(C3CCNCC3)cc12 [Example 44, 7-(3-isopropyl-5-(piperidin-4-yl)-1H-indol-2-yl)-3-methyl-3H-imidazo[4,5-b]pyridine]
IC50 [1]: 1000 to 50000 nM
IC50 [2]: 1000 to 50000 nM
IC50 [3]: 1000 to 50000 nM

SMILES: CC(C)c1c(-c2ccc3nccn3c2)[nH]c2ccc(C3CCN(C(=O)[C@@H]4CCCNC4)CC3)cc12 [Example 639, (R)-(4-(2-(imidazo[1,2-a]pyridin-6-yl)-3-isopropyl-1H-indol-5-yl)piperidin-1-yl)(piperidin-3-yl)methanone]
IC50 [1]: 100 to 1000 nM
IC50 [2]: 100 to 1000 nM
IC50 [3]: < 100 nM

SMILES: CC(C)c1c(-c2ccc3c(c2)oc(=O)n3C)[nH]c2ccc(C3CCNCC3)cc12 [Example 89, 6-(3-isopropyl-5-(piperidin-4-yl)-1H-indol-2-yl)-3-methylbenzo[d]oxazol-2(3H)-one]
IC50 [1]: 100 to 1000 nM
IC50 [2]: < 100 nM
IC50 [3]: 100 to 1000 nM

Continued, values first:

IC50 [1]: 1000 to 50000 nM
IC50 [2]: < 100 nM
IC50 [3]: < 100 nM
SMILES: CC(C)c1c(-c2ccc3ncnn3n2)[nH]c2ccc(C3CCN(CC(=O)N(C)C)CC3)cc12 [Example 278, 2-(4-(2-([1,2,4]triazolo[1,5-b]pyridazin-6-yl)-3-isopropyl-1H-indol-5-yl)piperidin-1-yl)-N,N-dimethylacetamide]

IC50 [1]: 1000 to 50000 nM
IC50 [2]: < 100 nM
IC50 [3]: < 100 nM
SMILES: Cc1ccc(-c2[nH]c3ccc(C4CCNCC4)cc3c2C(C)C)c2ncnn12 [Example 152, 8-(3-isopropyl-5-(piperidin-4-yl)-1H-indol-2-yl)-5-methyl-[1,2,4]triazolo[1,5-a]pyridine]

IC50 [1]: 100 to 1000 nM
IC50 [2]: 1000 to 50000 nM
IC50 [3]: 1000 to 50000 nM
SMILES: Cc1nc2c(-c3[nH]c4ccc(C5CCNCC5)cc4c3C)ccnc2[nH]1 [Example 232, 2-methyl-7-(3-methyl-5-(piperidin-4-yl)-1H-indol-2-yl)-3H-imidazo[4,5-b]pyridine]

IC50 [1]: 1000 to 50000 nM
IC50 [2]: < 100 nM
IC50 [3]: < 100 nM
SMILES: Cc1cc(-c2[nH]c3ccc(C4CCN(CCCC(F)(F)F)CC4)cc3c2C(C)C)cn2nnnc12 [Example 963, 6-(3-isopropyl-5-(1-(4,4,4-trifluorobutyl)piperidin-4-yl)-1H-indol-2-yl)-8-methyltetrazolo[1,5-a]pyridine]

IC50 [1]: 1000 to 50000 nM
IC50 [2]: > 3130 nM
IC50 [3]: 100 to 1000 nM
SMILES: CC(C)c1c(-c2nc3c(N)ncnc3[nH]2)[nH]c2ccc(C3CCNCC3)cc12 [Example 8, 8-(3-isopropyl-5-(piperidin-4-yl)-1H-indol-2-yl)-9H-purin-6-amine]
